In patent US12121500B2, “Inhibitors of Bunyaviridae and uses thereof” (priority 2020, dated 2024):
pEC50, pIC50: −log10 of the molar value. Converted amounts (≈) assume the structure as drawn. Where two headings read alike, the source gives them in different places.

Columns and labels:
[1] = system: RVFV strain MP12; assay: microbe, parasite or virus in culture; format: cell-based, Rift Valley Fever Virus; conditions: for pEC50: Rift Valley fever virus, Vero, read-out: Estimated EC50
[2] = target: T1, human ribonuclease H1 (Homo sapiens, UniProt O60930); assay: biochemical; format: biochemical
T1 construct: made in house; host or cells: E. coli
T1 sequence (O60930 1-286): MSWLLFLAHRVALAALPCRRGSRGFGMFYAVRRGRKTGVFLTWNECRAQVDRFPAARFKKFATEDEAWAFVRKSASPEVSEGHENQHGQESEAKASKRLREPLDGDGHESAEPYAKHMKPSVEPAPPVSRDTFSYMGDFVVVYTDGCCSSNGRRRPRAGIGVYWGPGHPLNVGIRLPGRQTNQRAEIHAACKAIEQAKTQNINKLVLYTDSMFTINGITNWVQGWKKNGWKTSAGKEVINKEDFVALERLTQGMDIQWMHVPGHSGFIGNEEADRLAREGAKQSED

[3] = Cytotoxicity in HepDES19 cells, MTS assay; conditions: human
[4] = system: RVFV; assay: microbe, parasite or virus in culture; format: cell-based, Rift Valley Fever Virus; conditions: for EC50: Rift Valley fever virus, Vero, 24 h, read-out: RVFV (EC50, μM)
[5] = Quantitative cytotoxicity in Vero cells, crystal violet staining of EC50 plates; conditions: African green monkey
[6] = system: C. neoformans; assay: Inhibition of C. neoformans growth, limiting dilution assay; format: cell-based, Cryptococcus neoformans; conditions: Cryptococcus neoformans
[7] = in vitro; conditions: human
[8] = system: RVFV; assay: microbe, parasite or virus in culture; format: cell-based, Rift Valley Fever Virus; conditions: Rift Valley fever virus, A549, 24 h
[9] = in vitro; conditions: African green monkey
[10] = system: Staphylococcus spp.; assay: Inhibition of Staphylococcus spp. growth, broth microdilution; format: cell-based, S. saprophyticus or S. aureus; conditions: Staphylococcus; 16-24 hours, Mueller-Hinton broth; — = no measurable MIC80
[11] = system: Escherichia coli; assay: Inhibition of Escherichia coli growth, broth microdilution; format: cell-based; conditions: Escherichia coli; 16-24 hours, Mueller-Hinton broth; — = inactive; read-out: E. coli (MIC80)
[12] = HepDES19 cells (HepG2-derived hepatoblastoma cell line)
[13] = 48 hours at 35° C., YNB-02, read-out: C. neoformans (MIC80)
[14] = 48 h, read-out: C. neoformans (MIC80, μM)

Structure (SMILES) | pEC50 [1] | pIC50 [2] | CC50 at 3 days [3, 12] [µM] | EC50 [4] [µM] | CC50 at 1 day [5] [µM] | MIC80 [6, 13] [µM] | CC50 [9] [µM] | further results
O=c1c(O)c(-c2ccc(O)c(O)c2)oc2cc(O)c(O)c(O)c12 [Compound 7, Quercetagetin, reference compound] | ≤ 3.92 |  |  |  |  |  |  | 
CC(C)c1cccc(=O)c(O)c1 [Compound 47, β-thujaplicin, reference compound] | ≤ 3.92 |  |  |  |  |  |  | activity against RVFV in the primary screen, in words [1]: inactive
CSc1cccc(O)c(=O)c1O [Compound 385] |  | 3.75 | > 100 | 25.2 | > 250 | 24 (≈ 4.42 µg/mL) |  | 
CC(=O)c1c(C)cc(O)c(=O)c(O)c1Br [Compound 320] | 5.70 | 4.43 | 49.5 | 20.1 | > 120 | 49 (≈ 13.4 µg/mL) |  | CC50 [7]: ≥ 120 µM; pEC50 [8]: 4.04
COc1ccc(CO/N=C(\C)c2c[nH]c(=O)[nH]c2=O)cc1 [Compound 522] | ≤ 3.92 |  |  |  |  |  | 1 | 
CCOC(=O)c1sc(NC(=O)CSc2nnc(Cc3ccccc3)o2)c(C#N)c1C [Compound 6, reference compound] | ≤ 3.92 |  |  |  |  |  |  | 
C/C(=N\c1ccccc1Cl)c1c(C)cc(O)n(O)c1=O [Compound 668] | 4.96 | 3.78 | 76.8 | 14 to 20 | > 120 |  | ≥ 120 | pEC50 ([4]; read-out: RVFV (EC50)): 4.72; CC50 [7]: 82 µM; pEC50 [8]: 4.45
Cc1cc(O)c(=O)c(O)cc1C(=O)NCc1ccc(N2CCCC2)cc1 [Compound 1019] | 4.72 |  |  |  |  |  | ≥ 120 | 
Cc1cc(O)c(=O)c(O)cc1C(=O)c1ccccc1 [Compound 111] |  | 4.32 |  | 19 | > 250 | 36 (≈ 9.23 µg/mL) |  | 
Cc1cc(O)c(=O)c(O)cc1-c1ccccc1 [Compound 113] |  | 3.76 |  | 10.3 | > 250 | 24 (≈ 5.48 µg/mL) |  | 
COC(=O)c1c(C)cc(O)c(=O)c(O)c1Br [Compound 335] | 5.52 | 3.95 |  | 40.8 | > 120 |  |  | CC50 [7]: 96.2 µM; pEC50 [8]: ≤ 3.92; MIC80 [6, 14]: 50 µM (≈ 14.5 µg/mL)
Cc1cc(O)c(=O)c(O)cc1S(=O)(=O)c1ccccc1 [Compound 336] | 5.52 |  |  | 9 | 65.8 | 50 (≈ 14.6 µg/mL) |  | pIC50 ([2]; read-out: Human RNaseH1 (IC50)): 4.07
CC(=O)c1c(C)cc(O)c(=O)c(O)c1-c1ccccc1 [Compound 330] | 5.70 | 3.32 | 56.2 | 9.5 | > 300 | 4 (≈ 1.08 µg/mL) |  | MIC80 [10]: 44 µM (≈ 11.9 µg/mL); CC50 [7]: ≥ 120 µM; pEC50 [8]: 4.37
O=c1c(O)ccc(-c2ccco2)cc1O [Compound 265] |  | 4.24 |  | 15.4 | > 250 | 11 (≈ 2.25 µg/mL) |  | MIC80 [10]: 30 µM (≈ 6.13 µg/mL)
CCCCNC(=O)c1cc(O)c(=O)c(O)cc1C [Compound 1039] | 5.22 |  |  | 8.9 | > 120 | 12 (≈ 3.02 µg/mL) | ≥ 120 | CC50 [7]: ≥ 120 µM; pEC50 [8]: 4.81
Cc1cc(O)c(=O)c(O)cc1-c1ccc(-c2cccc3ccccc23)cc1 [Compound 234] | 4.72 |  |  |  |  |  | ≥ 120 | 
Cc1cc(O)c(=O)c(O)cc1C(=O)NCc1ccc(-c2ccccc2)cc1 [Compound 539] | 5.00 | 3.98 | 3.6 | 18.6 | > 300 | 4.5 (≈ 1.63 µg/mL) | 71 | MIC80 [10]: 38 µM (≈ 13.7 µg/mL)
Cc1cc(O)c(=O)c(O)cc1C(=O)C1CCCCC1 [Compound 120] |  | 4.09 |  | 15.6 | > 250 | 12 (≈ 3.15 µg/mL) |  | 
O=C1c2ccccc2C(=O)N1O [Compound 138, reference compound] | ≤ 3.92 |  |  |  |  |  |  | 
COc1ccc(Cl)cc1C(=O)Sc1cccccc1=O [Compound 681] | ≤ 3.92 |  |  |  |  |  | 2 | 
O=C(O)CC(=O)CC(=O)c1cccs1 [Compound 129, reference compound] | ≤ 3.92 |  |  |  |  |  |  | 

Structure (SMILES) | pEC50 [1] | pIC50 [2] | CC50 at 3 days [3, 12] [µM] | EC50 [4] [µM] | CC50 at 1 day [5] [µM] | MIC80 [6, 13] [µM] | CC50 [9] [µM] | further results
Cc1ccc(Sc2cccc(O)c(=O)c2O)cc1 [Compound 838] | 5.10 | 4.00 | 18.6 | 12.7 | > 300 | 1 (≈ 0.26 µg/mL) | 86 | 
CC1=CC(O)N(O)C(O)=C1/C(C)=N/c1ccccc1N (stereo not shown) [Compound 208] | 4.85 | 3.71 |  | > 120 | > 250 |  | ≥ 120 | CC50 at 3 days [3]: 14.4 µM; MIC80 [6, 14]: 30 µM (≈ 8.26 µg/mL)
Cc1cc(O)c(=O)c(O)cc1C(=O)N1CCCCC1 [Compound 390] | 7.00 | 3.97 | 29.8 | 11.9 | > 250 | 11 (≈ 2.9 µg/mL) |  | CC50 [7]: ≥ 120 µM; pEC50 [8]: 5.03; activity against RVFV in the primary screen, in words [1]: active
O=C1C=CC(=O)c2ccccc21 [Compound 327] | 5.70 | 4.33 | 18.5 | 39.7 | 42.9 | 9.1 (≈ 1.44 µg/mL) |  | CC50 [7]: 27.5 µM; pEC50 [8]: 4.71
Cc1cc(O)c(=O)c(O)cc1C(=O)N1CCN(C(=O)C2COc3ccccc3O2)CC1 (stereo not shown) [Compound 876] |  |  |  |  |  |  | ≥ 120 | 
C/C(=N\c1cccc(Oc2ccccc2)c1)c1c(C)cc(=O)n(O)c1O [Compound 515] | 4.85 | 3.21 | 71.3 | 24.3 | > 120 | 11 (≈ 3.85 µg/mL) | ≥ 120 | CC50 [7]: 93.6 µM; pEC50 [8]: ≤ 3.92
Cc1cc(O)c(=O)c(O)cc1C(=O)c1ccc(Br)cc1 [Compound 358] |  | 4.37 | 12.5 | 9 | > 250 | 11 (≈ 3.69 µg/mL) |  | MIC80 [11]: 20 µM (≈ 6.7 µg/mL)
CCCCCCSc1cccc(O)c(=O)c1O [Compound 840] | 4.85 | 4.14 | 21.5 | 31.6 | > 120 | 1 (≈ 0.254 µg/mL) | ≥ 120 | CC50 [7]: ≥ 120 µM; pEC50 [8]: 4.81
Cc1cc(O)c(=O)c(O)cc1C(=O)N1CCN(c2ccc([N+](=O)[O-])c3nonc23)CC1 [Compound 920] | 4.72 |  |  |  |  |  | ≥ 120 | 
Cc1ccc(O)c(=O)c(O)c1 [Compound 210] | 5.10 | 4.07 |  | 14.6 | 283 | 15 (≈ 2.28 µg/mL) | ≥ 120 | 
Cc1ccc(CNC(=O)c2cc(O)c(=O)c(O)cc2C)c(C)c1 [Compound 809] | 4.77 |  |  |  |  |  | 64 | 
CC(=O)c1c(C)cc(O)c(=O)c(O)c1-c1cccc2ccccc12 [Compound 331] | 5.70 | 3.35 | 36.6 | 15.8 | 80.4 | 11 (≈ 3.52 µg/mL) |  | MIC80 [10]: 67 µM (≈ 21.5 µg/mL); CC50 [7]: ≥ 120 µM; pEC50 [8]: 4.75
C/C(=N\c1ccc(C(F)(F)F)cc1)c1c(C)cc(=O)n(O)c1O [Compound 517] | 4.89 | 3.87 | 91 | > 120 | > 120 | 24 (≈ 7.83 µg/mL) | ≥ 120 | CC50 [7]: 71.8 µM; pEC50 [8]: 4.02
CC(C)c1ccc(O)c(=O)cc1 [Compound 48, γ-thujaplicin, reference compound] | ≤ 3.92 |  |  |  |  |  |  | activity against RVFV in the primary screen, in words [1]: inactive
C/C(=N\c1ccccc1F)c1c(C)cc(=O)n(O)c1O [Compound 516] | 4.72 |  |  |  |  |  | ≥ 120 | 
COC(=O)c1c(C)cc(O)c(=O)c(O)c1O [Compound 196] |  | 3.39 | 6 | 23.9 | > 250 |  |  | MIC80 [10]: 67 µM (≈ 15.2 µg/mL)
Cc1cc(O)c(=O)c(O)cc1C(=O)Nc1cccc(OCc2ccccc2)c1 [Compound 836] | 4.89 |  |  |  |  |  | ≥ 120 | 
Cc1cc(O)c(=O)c(O)cc1C(=O)c1ccc(-c2ccccc2)cc1 [Compound 118] |  | < 3.30 |  | 11 | 248 | 15 (≈ 4.99 µg/mL) |  | 
CC(=O)c1c(C)cc(O)c(=O)c(O)c1Cl [Compound 368] |  | 3.94 | 31 | 25.4 | > 250 | 24 (≈ 5.49 µg/mL) |  | 
NC(=O)c1c(N)sc2c1CCCCC2 [Compound 22, reference compound] | ≤ 3.92 |  |  |  |  |  |  | 
CC(C)c1ccc(O)c(=O)c(O)c1 [Compound 46, β-thujaplicinol] |  |  |  | 13.8 | > 250 | 8 (≈ 1.44 µg/mL) |  | MIC80 [11]: 44 µM (≈ 7.93 µg/mL); MIC80 [10]: 20 µM (≈ 3.6 µg/mL)
